{"source": "paper PMC10819767", "about": "“An ADAM10 Exosite Inhibitor Is Efficacious in an In Vivo Collagen-Induced Arthritis Model” (Pharmaceuticals, 2024)", "tested_on": "collagen-induced arthritis (CIA) model", "test": "CIA mouse model: clinical arthritis score and paw swelling", "format": "in vivo, C57 BL/6 mice", "conditions": "for disease score: scale 0–4", "experimental": "In vivo efficacy in the CIA mouse model. All animal studies were conducted in accordance with NSU IACUC guidelines. Study protocol #2021.04.DM5 was approved by NSU IACUC before the commencement of the studies. CID 3117694 and indomethacin were ground with a small amount of the dispersing agent (0.5% HPMC (3 cP)–0.5% Tween 80) using a mortar and a pestle and mixed repeatedly to form a smooth paste. The paste was moved to a graduated cylinder and filled up to the required volume with the dispersing agent to form a suspension, as described elsewhere. The test compound (10, 30, and 50 mg/kg) and indomethacin (2.5 mg/kg) were administered with a mouse gavage needle (gauge no: 18, BD, catalog number: 653902) through the oral route as a suspension with a 5 mL/kg dose volume (from day 0 to day 28). In this study, 6–8-week-old C57 BL/6 mice from Charles River (male and female) were used. Animals were randomly assigned to one of the following six groups: (1) normal (non-RA control), (2) RA control untreated, (3) RA control treated with 2.5 mg/kg/day indomethacin, and 3 test groups (CID 3117694 (10 mg/kg/day, 30 mg/kg/day, and 50 mg/kg/day)) to provide an estimate for the lead compound’s efficacy range. Each group had three males and three females assigned to the control for gender-based differences. Arthritis was induced in the right paws of the mice under anaesthesia. The left paw of the mice was used as a control. A total of 10 µL collagen from bovine (type II collagen) nasal septum emulsion (2 mg/mL) was injected into the right knee joint with a glass Hamilton syringe and 25 G needles for intraarticular (i.a.) injection, followed by a total of 100 µL Complete Freund’s adjuvant (CFA) emulsion was injected at the back of mice using a syringe with 25 G needles subcutaneously (s.c.). On day 14 after the first injection, the mice were injected, i.e., with 10 µL of collagen from the bovine nasal septum ([…]) and s.c. with a 100 µL CFA emulsion for a boost injection. Arthritis progression was monitored using a clinical arthritis scoring system (0–4), and paw swelling was measured with the help of a plethysmograph on days 0, 14, 21, and 28 after the induction of arthritis. […] After the administration of a primary dose of collagen from the bovine nasal septum, CFA scoring was assessed. Measurements were taken on days 0, 14, 21, and 28 after the induction of arthritis in induced paws (right paw) and non-arthritis paws (left paw). CID 3117694 (10 mg/kg/day, 30 mg/kg/day, and 50 mg/kg/day) and pharmacological control (indomethacin 2.5 mg/kg/day) treatment were given every day for 28 days beginning from day 1 via oral gavage in hydroxy-propyl-methyl cellulose (HPMC) suspension."}
{"smiles": "COc1cccc(C(=O)NNC(=O)C(=O)Nc2ccc(C)c(Cl)c2)c1", "note": "[CID 3117694]", "values": [{"measurement": "paw swelling vs normal control (in words)", "setting": "50 mg/kg/day", "result": "decreased the swelling to the level of the normal control"}, {"measurement": "disease score", "setting": "day 21, 10 mg/kg oral", "result": 4}, {"measurement": "disease score", "setting": "day 21, 30 mg/kg oral", "result": "three"}, {"measurement": "disease score", "setting": "day 21, 50 mg/kg oral", "result": 2}, {"measurement": "disease score", "setting": "day 28, 10 mg/kg oral", "result": 2}, {"measurement": "disease score", "setting": "day 28, 30 mg/kg oral", "result": 2}, {"measurement": "disease score", "setting": "day 28, 50 mg/kg oral", "result": 1}]}
